Holding throughout (format): cell-based, human
Test [1] has as its system breast cancer cells (MCF-7, MDA-MB-231) on HMEC-1 cells. In words: Adhesion of breast cancer cells to endothelial monolayer under static conditions. Particulars: P4D 500 μM. Here is the method: The peptides were synthesized and purified by LifeTein, LLC (Somerset, N.J., USA) with the purity of not less than 95% using PeptideSyn™ technology that incorporates solid phase fluorenylmethyloxycarbonyl (Fmoc) chemistry. The cells were treated with the peptide P4D for 0, 1, 5, or 24 hours at a concentration of 500 μM. The cells treated with the Scrambled peptide P4D (Scr; 500 μM; 0, 1, 5, or 24 hours incubation time) were used as a negative control. In order to provide the positive control of the junctions tightening for impedance-based measurements of endothelial permeability, the cells were incubated with the potent activator of TJ assembly, forskolin (FSK; BioShop, Burlington, ON, Canada), for 24 hours at a concentration of 10 μM.
Adhesion of human breast cancer (MCF-7, MDA-MB-231) or non-tumorigenic (MCF-10A) human breast cells to HMEC-1 cells was performed in 24-well plates. HMEC-1 cells were seeded to the bottom of the fibronectin-coated wells 2 days before the assay to form the monolayer and subjected to a suitable treatment. Breast cancer or non-tumorigenic cells were starved overnight and on the day of the assay were labeled with CellTracker Green CMFDA Dye for 30 minutes. […] The adherent cells were lysed by 2% SDS and the fluorescence was measured using the Wallac 1420 VICTOR2 Multilabel Counter (PerkinElmer) at 492 nm of excitation and 517 nm of emission wavelengths.

Test [2] deals with HMEC-1 endothelial monolayer. The test is described as follows: Macromolecular permeability of endothelial monolayer (FITC-dextran tracer assay). Here is the method:
Macromolecular permeability of endothelial monolayer was analyzed by macromolecular tracer assay. HMEC-1 cells were grown in Transwell inserts with polyethylene terephthalate (PET) filters and 0.4-μm pores (Falcon, cat. #353095) in 24-well plates (Falcon, cat. #351147) at 1.5×10^5 cells/insert and immediately treated with P4D peptide (P4D) or with Scrambled P4D peptide (Scr) at a concentration of 500 μM (the samples indicated as 0 hours of incubation). Non-treated cells served as a control sample (Ctrl). Moreover, HMEC-1 cells were treated with P4D peptide at the following periods of time after seeding: 1 hour, 5 hours and 24 hours. One hour after the last treatment with P4D (24 hours) FITC-dextran with a molecular weight of 40 kDa was added into the inserts and the culture medium from the wells was replaced with PBS. After 1 hour incubation in darkness in a humidified incubator with the temperature of 37° C. and 5% CO2 atmosphere, the PBS from the wells (outside the inserts) was transferred into the wells of a black 96-well plate and the fluorescence was measured using the Wallac 1420 VICTOR2 Multilabel Counter (PerkinElmer, Waltham, Mass., USA) at 492 nm of excitation and 517 nm of emission wavelengths.

A further test concerns JAM-A. In words: Western blot of JAM-A protein in HMEC-1 cells. As to the method:
The cells were lysed with lysis buffer (1% Triton X-100 and 0.1% SDS in PBS) supplemented with Halt Protease Inhibitor Cocktail (Thermo Scientific, Waltham, Mass., USA). For the equalization between the samples before the semi-quantitative analyses the protein content of lysates was determined with the BCA Protein Assay Kit according to the manufacturer's protocol (Thermo Scientific). Cell lysate aliquots at a protein content of 50 μg per sample were boiled with 5× concentrated loading buffer (final concentrations: 50 mM Tris-HCl, pH 6.8, 8% glycerol, 2% SDS, 5% β-mercaptoethanol, 0.002% bromophenol blue), separated under reducing conditions on 4-20% gradient SDS-PAGE gels (Bio-Rad) and electroblotted (120 min, 200 mA, 4° C.) onto polyvinylidene difluoride (PVDF) membranes (Bio-Rad). The membranes were washed with Tris-buffered saline (TBS) and blocked for 2 hours with TBS containing 5% nonfat dry milk at room temperature. Then, the membranes were incubated overnight at 4° C. with an appropriate amount of primary antibody diluted in TBS containing 0.05% Tween 20 (TBST). The following primary antibodies were used: monoclonal rabbit anti-JAM-A (Abcam, Cambridge, UK) at a dilution of 1:500 and monoclonal mouse anti-GAPDH (R&D Systems, Minneapolis, Minn., USA) at a dilution of 1:1000. The membranes were washed several times with TBST and incubated for 1 hour at room temperature with the corresponding polyclonal anti-rabbit and anti-mouse HRP-conjugated secondary antibodies (Santa Cruz Biotechnology, Dallas, Tex., USA) at a 1:5000 dilution in TBST. Following the subsequent washes with TBST the membranes were further processed for chemiluminescent detection using Westar TiC ECL Substrate (Cyanagen, Bologna, Italy) and the images were documented by ChemiDoc MP Imager (Bio-Rad).
On the technique in general: A western blot detects proteins with antibodies after separation by electrophoresis.

Non-standard residues stand in square brackets, D forms with d. Residues, ends and D or L forms follow the SMILES beside them.

Consider `CC(C)[C@H](NC(=O)[C@H](CO)NC(=O)[C@H](N)CCCCN)C(=O)N[C@H](C(=O)N[C@H](CCCNC(=N)N)C(=O)N[C@@H](CCC(=O)O)C(=O)N[C@@H](CC(=O)O)C(=O)N[C@H](C(=O)NCC(=O)N[C@H](C(=O)N[C@@H](Cc1ccc(O)cc1)C(=O)N[C@H](C(=O)N[C@@H](CS)C(N)=O)[C@@H](C)O)[C@@H](C)O)[C@@H](C)O)[C@@H](C)O` [Peptide P4D, NH2-(dK)-SVT-(dR)-EDTGTYTC-CONH2] (H-[dK]SVT[dR]EDTGTYTC-NH2), for which the “adhesion of MECs to inflamed endothelial monolayer” value in test [1] (HMEC-1 preincubated with TNF-α 10 ng/ml and IFN-γ 20 ng/ml for 24 hours) was “restrained the adhesion of MECs to the inflamed endothelial monolayer”. Besides, the “extent of adhesion inhibition, MDA-MB-231 cells compared with other MECs” value in test [1] (cytokine-inflamed HMEC-1) is “most pronounced”. The “effect on preexisting tight junctions (FITC-dextran flux)” value in test [2] (P4D 500 μM applied 1, 5 or 24 hours after seeding) is given as “did not disrupt the preexisting ones”. Also, the “transendothelial flux of 40-kDa FITC-dextran” value in test [2] (P4D 500 μM applied immediately after the cells were seeded (0 hours)) is reported as “elevated”.

Regarding “Thymosin β4 (SDKPDMAEIEKFDKSKLKKTETQEKNPLPSKETIEQEKQAGES; not fully specified; Thymosin beta-4; UniProt P62328 2-44, looked up) [Tβ4]”, the “level of JAM-A protein” value with JAM-A (Tβ4 200 nM or TGF-β1 10 ng/mL, 24-hours incubation) was “evidently reduced the level of JAM-A protein”. In the test on JAM-A (Tβ4 200 nM, 0, 2, 5, or 12 hours), the “action on JAM-A expression over incubation time” value was “time-dependent”.

The values are drawn from US10537610B1, “Peptide for inhibition of cancer” (priority 2018, dated 2020).
